The results in this text go back to US20250059164A1, “IRAK DEGRADERS AND USES THEREOF” (Kymera Therapeutics, Inc., priority 2023, published 2025).

One series addresses T1, IRAK4 (Homo sapiens, UniProt Q9NWZ3).
T1 construct: endogenous in cells; host or cells: OCI-LY10
T1 sequence (Q9NWZ3 1-460): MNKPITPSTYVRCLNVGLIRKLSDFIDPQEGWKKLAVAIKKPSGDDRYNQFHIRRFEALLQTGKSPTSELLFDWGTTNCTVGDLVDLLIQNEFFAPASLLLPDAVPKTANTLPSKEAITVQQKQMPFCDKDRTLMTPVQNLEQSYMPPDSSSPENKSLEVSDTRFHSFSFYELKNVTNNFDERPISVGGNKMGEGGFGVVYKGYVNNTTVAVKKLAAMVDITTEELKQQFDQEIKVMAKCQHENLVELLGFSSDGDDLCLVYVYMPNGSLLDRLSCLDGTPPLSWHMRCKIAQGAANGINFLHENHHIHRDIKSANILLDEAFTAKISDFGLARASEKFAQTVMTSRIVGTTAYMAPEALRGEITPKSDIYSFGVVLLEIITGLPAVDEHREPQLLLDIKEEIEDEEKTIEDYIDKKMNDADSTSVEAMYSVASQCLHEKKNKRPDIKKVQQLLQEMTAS
Kind of series: IRAK4 MSD degradation in OCI-LY10. Format: cell-based. To be noted: OCI-LY10 cells, 24 hrs, Meso Scale Discovery. The essentials: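 OCI-LY10 cells treated 4 to 24 hours at 37° C. with 8-dose 1:3 series, top 1 to 10 μM. IRAK4 in lysates quantified by MSD sandwich immunoassay (mouse capture, rabbit detection, SULFO-TAG anti-rabbit). DC50 from three-parameter logistic fit.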
`Cn1c(=O)n(C2CCC(=O)NC2=O)c2cccc(N3CCC4(CCN(C[C@H]5CC[C@H](n6cc7cc(NC(=O)c8cncc(F)c8)c(C(C)(C)O)cc7n6)CC5)CC4(F)F)CC3)c21` (stereo partly shown) [I-386]: the DC50 was under 10 nM.
The same measure, in the same setting: the same measure for `Cn1c(=O)n(C2CCC(=O)NC2=O)c2cccc(N3CCC4(CCN(C[C@H]5CC[C@H](n6cc7cc(NC(=O)c8cncc(Cl)c8)c(C(C)(C)O)cc7n6)CC5)CC4(F)F)CC3)c21` (stereo partly shown) [I-387]: under 10 nM.
Turning to `Cn1c(=O)n(C2CCC(=O)NC2=O)c2ccc(F)c(N3CC4(CCN(C[C@H]5CC[C@H](n6cc7cc(NC(=O)c8cncc(C#N)c8)c(C(C)(C)O)cc7n6)CC5)CC4(F)F)C3)c21` (stereo partly shown) [I-388], the DC50 was under 10 nM.
The same measure, in the same setting: the same measure for `Cn1c(=O)n(C2CCC(=O)NC2=O)c2ccc(F)c(N3CCC4(CCN(C[C@H]5CC[C@H](n6cc7cc(NC(=O)c8cncc(C#N)c8)c(C(C)(C)O)cc7n6)CC5)CC4(F)F)CC3)c21` (stereo partly shown) [I-393]: under 10 nM; for `COc1cc(C(=O)Nc2ccc3nn([C@H]4CC[C@H](CN5CC[C@@H](c6cccc7c6n(C)c(=O)n7C6CCC(=O)NC6=O)[C@H](F)C5)CC4)cc3c2)nc(C(F)(F)F)c1` (stereo partly shown) [I-394]: over 200 nM; for `Cc1cc(C(=O)Nc2ccc3nn([C@H]4CC[C@H](CN5CC[C@@H](c6cccc7c6n(C)c(=O)n7C6CCC(=O)NC6=O)[C@H](F)C5)CC4)cc3c2)nc(C(F)(F)F)c1` (stereo partly shown) [I-395]: over 200 nM.
Same read-out and setting: the value for `COc1cc2nn([C@H]3CC[C@H](CN4CCC5(CCN(c6cccc7c6n(C)c(=O)n7C6CCC(=O)NC6=O)CC5)C(F)(F)C4)CC3)cc2cc1C(=O)Nc1cccc(C(F)(F)F)n1` (stereo partly shown) [I-396] was over 200 nM; that for `CC(C)(O)c1cc2nn([C@H]3CC[C@H](CN4CCC5(CCN(c6cccc7c(N8CCC(=O)NC8=O)cncc67)CC5)C(F)(F)C4)CC3)cc2cc1NC(=O)c1cncc(C#N)c1` [I-400] was under 10 nM.
Still for that read-out and setting: the value for `Cn1nc(N2CCC(=O)NC2=O)c2cccc(N3CCC4(CCN(C[C@H]5CC[C@H](n6cc7cc(NC(=O)c8cncc(C#N)c8)c(C(C)(C)O)cc7n6)CC5)CC4(F)F)CC3)c21` [I-404] was 10 to 100 nM; that for `Cn1c(=O)n(C2CCC(=O)NC2=O)c2cccc([C@@H]3CCN(C[C@H]4CC[C@H](c5nc6cc(C(C)(C)O)c(NC(=O)c7cncc(C#N)c7)cc6o5)CC4)C[C@H]3F)c21` (stereo partly shown) [I-405] was 10 to 100 nM.
With `Cn1c(=O)n(C2CCC(=O)NC2=O)c2cccc(N3CCC4(CCN(C[C@H]5CC[C@H](c6nc7cc(C(C)(C)O)c(NC(=O)c8cncc(C#N)c8)cc7o6)CC5)CC4(F)F)CC3)c21` (stereo partly shown) [I-406], the half-maximal degradation concentration (DC50) was over 200 nM.
The same measure, in the same setting: the same measure for `Cn1c(=O)n(C2CCC(=O)NC2=O)c2cccc(N3CCC4(CCN(C[C@H]5CC[C@H](c6nc7cc(C(C)(C)O)c(NC(=O)c8cccc(C(F)(F)F)n8)cc7s6)CC5)CC4(F)F)CC3)c21` (stereo partly shown) [I-407]: 10 to 100 nM; for `Cn1c(=O)n(C2CCC(=O)NC2=O)c2cccc(N3CCC4(CCN(C[C@H]5CC[C@H](c6nc7cc(C(C)(C)O)c(NC(=O)c8cccc(C(F)(F)F)n8)cc7o6)CC5)CC4(F)F)CC3)c21` (stereo partly shown) [I-408]: over 200 nM.
On the same count and under the same terms, the same measure for `Cn1c(=O)n(C2CCC(=O)NC2=O)c2cccc(N3CC4(CCN(C[C@H]5CC[C@H](c6nc7cc(C(C)(C)O)c(NC(=O)c8cccc(C(F)(F)F)n8)cc7s6)CC5)CC4(F)F)C3)c21` (stereo partly shown) [I-409]: 10 to 100 nM; for `Cn1c(=O)n(C2CCC(=O)NC2=O)c2cccc(N3CC4(CCN(C[C@H]5CC[C@H](c6nc7cc(C(C)(C)O)c(NC(=O)c8cncc(C#N)c8)cc7o6)CC5)CC4(F)F)C3)c21` (stereo partly shown) [I-410]: over 200 nM; for `Cn1c(=O)n(C2CCC(=O)NC2=O)c2cccc(N3CC4(CCN(C[C@H]5CC[C@H](c6nc7cc(C(C)(C)O)c(NC(=O)c8cccc(C(F)(F)F)n8)cc7o6)CC5)CC4(F)F)C3)c21` (stereo partly shown) [I-411]: over 200 nM.
Same read-out and setting: the value for `COc1ccc2c(c1N1CC3(CCN(C[C@H]4CC[C@H](c5nc6cc(C(C)(C)O)c(NC(=O)c7cncc(C#N)c7)cc6s5)CC4)CC3(F)F)C1)n(C)c(=O)n2C1CCC(=O)NC1=O` (stereo partly shown) [I-412] was 100 to 200 nM.

Tested on in another series: not listed separately
Description: Rodent pharmacokinetics (rat PK). The series is classed as in vivo. To be noted: po, dosed intravenously or orally by gavage, plasma, read-out: F % (bioavailability). The method, boiled down:
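Rats were dosed IV or by oral gavage, with jugular blood taken predose and at 5 min (IV only), 15, 30 min and 1, 2, 4, 8, 24 h. Plasma was separated by centrifugation at 4 °C. Oral bioavailability (F %) is coded A (≥5%) or B (≤5%).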
In the case of `Cn1c(=O)n(C2CCC(=O)NC2=O)c2cccc(N3CCC4(CCN(C[C@H]5CC[C@H](n6cc7cc(NC(=O)c8cncc(F)c8)c(C(C)(C)O)cc7n6)CC5)CC4(F)F)CC3)c21` (stereo partly shown) [I-386], the bioavailability is at least 5%.
Same read-out and setting: the same measure for `Cn1c(=O)n(C2CCC(=O)NC2=O)c2cccc(N3CCC4(CCN(C[C@H]5CC[C@H](n6cc7cc(NC(=O)c8cncc(Cl)c8)c(C(C)(C)O)cc7n6)CC5)CC4(F)F)CC3)c21` (stereo partly shown) [I-387]: at most 5%; for `Cn1c(=O)n(C2CCC(=O)NC2=O)c2ccc(F)c(N3CC4(CCN(C[C@H]5CC[C@H](n6cc7cc(NC(=O)c8cncc(C#N)c8)c(C(C)(C)O)cc7n6)CC5)CC4(F)F)C3)c21` (stereo partly shown) [I-388]: at most 5%.
With `Cn1c(=O)n(C2CCC(=O)NC2=O)c2ccc(F)c(N3CCC4(CCN(C[C@H]5CC[C@H](n6cc7cc(NC(=O)c8cncc(C#N)c8)c(C(C)(C)O)cc7n6)CC5)CC4(F)F)CC3)c21` (stereo partly shown) [I-393], the bioavailability is at most 5%.
The same measure, in the same setting: the value for `COc1cc(C(=O)Nc2ccc3nn([C@H]4CC[C@H](CN5CC[C@@H](c6cccc7c6n(C)c(=O)n7C6CCC(=O)NC6=O)[C@H](F)C5)CC4)cc3c2)nc(C(F)(F)F)c1` (stereo partly shown) [I-394] was at least 5%.
For the compound `Cc1cc(C(=O)Nc2ccc3nn([C@H]4CC[C@H](CN5CC[C@@H](c6cccc7c6n(C)c(=O)n7C6CCC(=O)NC6=O)[C@H](F)C5)CC4)cc3c2)nc(C(F)(F)F)c1` (stereo partly shown) [I-395], the bioavailability is at least 5%.
Turning to `COc1cc2nn([C@H]3CC[C@H](CN4CCC5(CCN(c6cccc7c6n(C)c(=O)n7C6CCC(=O)NC6=O)CC5)C(F)(F)C4)CC3)cc2cc1C(=O)Nc1cccc(C(F)(F)F)n1` (stereo partly shown) [I-396], the bioavailability is at most 5%.
On the same count and under the same terms, the value for `CC(C)(O)c1cc2nn([C@H]3CC[C@H](CN4CCC5(CCN(c6cccc7c(N8CCC(=O)NC8=O)cncc67)CC5)C(F)(F)C4)CC3)cc2cc1NC(=O)c1cncc(C#N)c1` [I-400] was at most 5%.
On the same count and under the same terms, the same measure for `Cn1nc(N2CCC(=O)NC2=O)c2cccc(N3CCC4(CCN(C[C@H]5CC[C@H](n6cc7cc(NC(=O)c8cncc(C#N)c8)c(C(C)(C)O)cc7n6)CC5)CC4(F)F)CC3)c21` [I-404]: at most 5%.
Consider `Cn1c(=O)n(C2CCC(=O)NC2=O)c2cccc([C@@H]3CCN(C[C@H]4CC[C@H](c5nc6cc(C(C)(C)O)c(NC(=O)c7cncc(C#N)c7)cc6o5)CC4)C[C@H]3F)c21` (stereo partly shown) [I-405], for which the bioavailability was at most 5%.
The same measure, in the same setting: the same measure for `Cn1c(=O)n(C2CCC(=O)NC2=O)c2cccc(N3CCC4(CCN(C[C@H]5CC[C@H](c6nc7cc(C(C)(C)O)c(NC(=O)c8cncc(C#N)c8)cc7o6)CC5)CC4(F)F)CC3)c21` (stereo partly shown) [I-406]: at most 5%.
Same read-out and setting: the same measure for `Cn1c(=O)n(C2CCC(=O)NC2=O)c2cccc(N3CCC4(CCN(C[C@H]5CC[C@H](c6nc7cc(C(C)(C)O)c(NC(=O)c8cccc(C(F)(F)F)n8)cc7s6)CC5)CC4(F)F)CC3)c21` (stereo partly shown) [I-407]: at most 5%.
The same measure, in the same setting: the value for `Cn1c(=O)n(C2CCC(=O)NC2=O)c2cccc(N3CCC4(CCN(C[C@H]5CC[C@H](c6nc7cc(C(C)(C)O)c(NC(=O)c8cccc(C(F)(F)F)n8)cc7o6)CC5)CC4(F)F)CC3)c21` (stereo partly shown) [I-408] was at least 5%; that for `Cn1c(=O)n(C2CCC(=O)NC2=O)c2cccc(N3CC4(CCN(C[C@H]5CC[C@H](c6nc7cc(C(C)(C)O)c(NC(=O)c8cccc(C(F)(F)F)n8)cc7s6)CC5)CC4(F)F)C3)c21` (stereo partly shown) [I-409] was at least 5%; that for `Cn1c(=O)n(C2CCC(=O)NC2=O)c2cccc(N3CC4(CCN(C[C@H]5CC[C@H](c6nc7cc(C(C)(C)O)c(NC(=O)c8cncc(C#N)c8)cc7o6)CC5)CC4(F)F)C3)c21` (stereo partly shown) [I-410] was at least 5%.
As to `Cn1c(=O)n(C2CCC(=O)NC2=O)c2cccc(N3CC4(CCN(C[C@H]5CC[C@H](c6nc7cc(C(C)(C)O)c(NC(=O)c8cccc(C(F)(F)F)n8)cc7o6)CC5)CC4(F)F)C3)c21` (stereo partly shown) [I-411], the bioavailability was at least 5%.
On the same count and under the same terms, the same measure for `COc1ccc2c(c1N1CC3(CCN(C[C@H]4CC[C@H](c5nc6cc(C(C)(C)O)c(NC(=O)c7cncc(C#N)c7)cc6s5)CC4)CC3(F)F)C1)n(C)c(=O)n2C1CCC(=O)NC1=O` (stereo partly shown) [I-412]: at most 5%.

What is called DC50 is the midpoint of the concentration-degradation curve. A higher DC50 goes with a less potent degrader. The bioavailability is the share of a dose that reaches the circulation, judged against a reference dose that is usually intravenous.
